In ChEMBL document CHEMBL4311992, “Discovery of 3-(((9H-purin-6-yl)amino)methyl)-4,6-dimethylpyridin-2(1H)-one derivatives as novel tubulin polymerization inhibitors for treatment of cancer” (Eur J Med Chem, 2019):
Activity calls are given as the source filed them. The calls are words filed in the database; no cut-off is given here.

Columns and labels:
HCT-116 [1] = assay: Induction of apoptosis in human HCT116 cells assessed as viable cells at 50 nM measured after 48 hrs by Annexin V-FITC/propidium iodide staining-based flow cytometry (reference value: 94.5%); format: functional; conditions: HCT-116, 48 h, read-out: Activity
[2] = target: Serine/threonine-protein kinase PLK2 (Homo sapiens) (UniProt Q9NYY3); assay: Inhibition of human Snk (65 to 409 residues) using casein as substrate measured after 40 mins in presence of [gamma33P]ATP by scintillation counting method; design: scale not given: the % may be the effect or the level left
[3] = target: Ribosomal protein S6 kinase alpha-1 (Homo sapiens) (UniProt Q15418); assay: Inhibition of recombinant full-length human Rsk1 assessed as residual activity at 10 uM using KKKNRTLSVA as substrate measured after 40 mins in presence of [gamma33P]ATP by scintillation counting method
[4] = test system: Protein kinase C eta type (Homo sapiens), P24723 [UNDEFINED MUTATION]; assay: Inhibition of recombinant human PKCeta V108L/G109R/L392Q mutant (2 to end residues) assessed as residual activity at 10 uM using ERMRPRKRQGSVRRRV as substrate measured after 40 mins in presence of [gamma33P]ATP by scintillation counting method
[5] = test system: Hepatocyte growth factor receptor (Homo sapiens), P08581 [Y1230D]; assay: Inhibition of recombinant human MET A1209G/V1290L/Y1248D mutant (974 to end residues) assessed as residual activity at 10 uM using KKKGQEEEYVFIE as substrate measured after 40 mins in presence of [gamma33P]ATP by scintillation counting method
Homo sapiens [6] = species: Homo sapiens; assay: Inhibition of recombinant human MAPKAPK2 A399G mutant (46 to end residues) assessed as residual activity at 10 uM using KKLNRTLSVA as substrate measured after 40 mins in presence of [gamma33P]ATP by scintillation counting method
[7] = target: Testis-specific serine/threonine-protein kinase 2 (Homo sapiens) (UniProt Q96PF2); assay: Inhibition of recombinant full-length human TSSK2 assessed as residual activity at 10 uM using KKKVSRSGLYRSPSMPENLNRPR as substrate measured after 40 mins in presence of [gamma33P]ATP by scintillation counting method
[8] = target: Tau-tubulin kinase 2 (Homo sapiens) (UniProt Q6IQ55); assay: Inhibition of human TTBK2 (1 to 331 residues) using Casein as substrate measured after 40 mins in presence of [gamma33P]ATP by scintillation counting method; design: scale not given: the % may be the effect or the level left
Mus musculus = species: Mus musculus; assay: Inhibition of recombinant full-length mouse PI3K p110alpha/p85alpha H1047R mutant assessed as residual activity at 10 uM using phosphatidylinositol-4, 5-bisphosphate as substrate measured after 40 mins by HTRF assay
[9] = target: Focal adhesion kinase 1 (Homo sapiens) (UniProt Q05397); assay: Inhibition of recombinant human FAK (411 to 686 residues) assessed as residual activity at 10 uM using EEEEYEEEEEEYYIIEEEEEEYEEEEEEYYEEEEEEKKKK as substrate measured after 40 mins in presence of [gamma33P]ATP by scintillation counting method
[10] = target: Receptor tyrosine-protein kinase erbB-4 (Homo sapiens) (UniProt Q15303); assay: Inhibition of recombinant human ErbB4 (706 to 991 residues) assessed as residual activity at 10 uM using poly (Glu, Tyr) 4:1 as substrate measured after 40 mins in presence of [gamma33P]ATP by scintillation counting method
Homo sapiens [11] = species: Homo sapiens; assay: Inhibition of recombinant human EphB2 A848S/ K918E mutant (560 to end residues) assessed as residual activity at 10 uM using KTFCGTPEYLAPEVRREPRILSEEEQEMFRDFDYIADWC as substrate measured after 40 mins in presence of [gamma33P]ATP by scintillation counting method
HCT-116 [12] = assay: Cell cycle arrest in human HCT116 cells assessed as up regulation of CDK1 expression up to 150 nM after 24 hrs by Western blot analysis; format: functional, cell-based
HCT-116 [13] = assay: Cell cycle arrest in human HCT116 cells assessed as up regulation of cdc25 expression up to 150 nM after 24 hrs by Western blot analysis; format: functional, cell-based
SW-620 [14] = assay: Induction of apoptosis in human SW620 cells measured after 48 hrs by Annexin V-FITC/propidium iodide staining-based flow cytometric analysis; format: functional, cell-based
[15] = target: Dual specificity tyrosine-phosphorylation-regulated kinase 2 (Homo sapiens) (UniProt Q92630); assay: Inhibition of recombinant full-length human DYRK2 assessed as residual activity at 10 uM using casein as substrate measured after 40 mins in presence of [gamma33P]ATP by scintillation counting method
[16] = target: Leukocyte tyrosine kinase receptor (Homo sapiens) (UniProt P29376); assay: Inhibition of recombinant human LTK (450 to end residues) assessed as residual activity at 10 uM using GEEPLYWSFPAKKK as substrate measured after 40 mins in presence of [gamma33P]ATP by scintillation counting method
[17] = target: Dual specificity mitogen-activated protein kinase kinase 3 (Homo sapiens) (UniProt P46734); assay: Inhibition of human MKK3 assessed as residual activity at 10 uM by radiometric method
[18] = target: Mitogen-activated protein kinase kinase kinase 10 (Homo sapiens) (UniProt Q02779); assay: Inhibition of recombinant human MLK2 (1 to 449 residues) assessed as residual activity at 10 uM using myelin basic protein as substrate measured after 40 mins in presence of [gamma33P]ATP by scintillation counting method
[19] = target: MAP kinase-interacting serine/threonine-protein kinase 2 (Homo sapiens) (UniProt Q9HBH9); assay: Inhibition of recombinant full-length human Mnk2 assessed as residual activity at 10 uM using myelin basic protein as substrate measured after 40 mins in presence of [gamma33P]ATP by scintillation counting method
[20] = target: [Pyruvate dehydrogenase (acetyl-transferring)] kinase isozyme 2, mitochondrial (Homo sapiens) (UniProt Q15119); assay: Inhibition of human PDHK2 assessed as residual activity at 10 uM by radiometric method
[21] = target: Receptor-interacting serine/threonine-protein kinase 1 (Homo sapiens) (UniProt Q13546); assay: Inhibition of human RIPK1 (8 to 322 residues) using myelin basic protein as substrate measured after 120 mins in presence of [gamma33P]ATP by scintillation counting method; design: scale not given: the % may be the effect or the level left
[22] = target: Serine/threonine-protein kinase WNK2 (Homo sapiens) (UniProt Q9Y3S1); assay: Inhibition of human WNK2 (166 to 489 residues) using myelin basic protein as substrate measured after 40 mins in presence of [gamma33P]ATP by scintillation counting method; design: scale not given: the % may be the effect or the level left
SW-620 [23] = assay: Induction of apoptosis in human SW620 cells assessed as late apoptotic cells at 25 nM measured after 48 hrs by Annexin V-FITC/propidium iodide staining-based flow cytometry (reference value: 1.8%); format: functional
SW-620 [24] = assay: Induction of apoptosis in human SW620 cells assessed as viable cells at 25 nM measured after 48 hrs by Annexin V-FITC/propidium iodide staining-based flow cytometry (reference value: 94.7%); format: functional; conditions: SW-620, 48 h, read-out: Activity

Sequence of Testis-specific serine/threonine-protein kinase 2 (Homo sapiens) (Q96PF2 whole entry, the tested form may be a part): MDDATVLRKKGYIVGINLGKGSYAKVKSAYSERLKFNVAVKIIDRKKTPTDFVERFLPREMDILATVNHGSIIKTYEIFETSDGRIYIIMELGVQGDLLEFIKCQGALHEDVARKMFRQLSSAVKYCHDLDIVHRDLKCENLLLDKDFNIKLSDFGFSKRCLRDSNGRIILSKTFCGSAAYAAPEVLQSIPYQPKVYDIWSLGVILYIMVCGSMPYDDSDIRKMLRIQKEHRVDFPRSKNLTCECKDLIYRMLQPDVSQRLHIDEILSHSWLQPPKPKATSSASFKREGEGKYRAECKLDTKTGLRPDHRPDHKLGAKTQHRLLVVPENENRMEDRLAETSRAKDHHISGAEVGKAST
Sequence of Receptor-interacting serine/threonine-protein kinase 1 (Homo sapiens) (Q13546 whole entry, the tested form may be a part): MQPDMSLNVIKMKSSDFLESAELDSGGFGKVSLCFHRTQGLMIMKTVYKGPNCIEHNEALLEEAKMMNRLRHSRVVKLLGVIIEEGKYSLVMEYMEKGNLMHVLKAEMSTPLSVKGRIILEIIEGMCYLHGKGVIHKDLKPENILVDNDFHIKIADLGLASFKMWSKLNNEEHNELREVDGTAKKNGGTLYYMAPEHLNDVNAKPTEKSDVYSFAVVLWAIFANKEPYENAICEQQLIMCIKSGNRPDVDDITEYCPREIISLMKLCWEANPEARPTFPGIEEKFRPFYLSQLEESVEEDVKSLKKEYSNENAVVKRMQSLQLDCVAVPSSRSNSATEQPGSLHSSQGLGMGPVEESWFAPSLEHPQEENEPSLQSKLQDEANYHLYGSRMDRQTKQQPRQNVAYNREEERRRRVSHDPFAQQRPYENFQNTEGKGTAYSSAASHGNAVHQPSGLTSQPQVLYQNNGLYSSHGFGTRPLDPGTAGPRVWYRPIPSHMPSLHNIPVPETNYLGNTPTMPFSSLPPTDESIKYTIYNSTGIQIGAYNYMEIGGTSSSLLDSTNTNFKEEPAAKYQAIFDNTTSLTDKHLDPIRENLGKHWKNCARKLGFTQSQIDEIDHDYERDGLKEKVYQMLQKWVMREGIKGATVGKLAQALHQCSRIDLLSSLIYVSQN
Sequence of Dual specificity mitogen-activated protein kinase kinase 3 (Homo sapiens) (P46734 whole entry, the tested form may be a part): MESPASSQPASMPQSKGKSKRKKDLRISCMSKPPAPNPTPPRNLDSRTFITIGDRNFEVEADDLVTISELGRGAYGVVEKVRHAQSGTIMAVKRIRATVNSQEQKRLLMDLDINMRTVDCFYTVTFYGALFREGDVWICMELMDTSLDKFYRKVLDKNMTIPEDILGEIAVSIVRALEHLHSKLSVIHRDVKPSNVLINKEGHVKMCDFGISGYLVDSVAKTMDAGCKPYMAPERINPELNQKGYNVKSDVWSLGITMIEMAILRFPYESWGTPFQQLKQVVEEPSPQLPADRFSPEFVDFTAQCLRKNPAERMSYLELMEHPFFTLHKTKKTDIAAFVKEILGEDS
Sequence of Focal adhesion kinase 1 (Homo sapiens) (Q05397 2-1052 limits assumed): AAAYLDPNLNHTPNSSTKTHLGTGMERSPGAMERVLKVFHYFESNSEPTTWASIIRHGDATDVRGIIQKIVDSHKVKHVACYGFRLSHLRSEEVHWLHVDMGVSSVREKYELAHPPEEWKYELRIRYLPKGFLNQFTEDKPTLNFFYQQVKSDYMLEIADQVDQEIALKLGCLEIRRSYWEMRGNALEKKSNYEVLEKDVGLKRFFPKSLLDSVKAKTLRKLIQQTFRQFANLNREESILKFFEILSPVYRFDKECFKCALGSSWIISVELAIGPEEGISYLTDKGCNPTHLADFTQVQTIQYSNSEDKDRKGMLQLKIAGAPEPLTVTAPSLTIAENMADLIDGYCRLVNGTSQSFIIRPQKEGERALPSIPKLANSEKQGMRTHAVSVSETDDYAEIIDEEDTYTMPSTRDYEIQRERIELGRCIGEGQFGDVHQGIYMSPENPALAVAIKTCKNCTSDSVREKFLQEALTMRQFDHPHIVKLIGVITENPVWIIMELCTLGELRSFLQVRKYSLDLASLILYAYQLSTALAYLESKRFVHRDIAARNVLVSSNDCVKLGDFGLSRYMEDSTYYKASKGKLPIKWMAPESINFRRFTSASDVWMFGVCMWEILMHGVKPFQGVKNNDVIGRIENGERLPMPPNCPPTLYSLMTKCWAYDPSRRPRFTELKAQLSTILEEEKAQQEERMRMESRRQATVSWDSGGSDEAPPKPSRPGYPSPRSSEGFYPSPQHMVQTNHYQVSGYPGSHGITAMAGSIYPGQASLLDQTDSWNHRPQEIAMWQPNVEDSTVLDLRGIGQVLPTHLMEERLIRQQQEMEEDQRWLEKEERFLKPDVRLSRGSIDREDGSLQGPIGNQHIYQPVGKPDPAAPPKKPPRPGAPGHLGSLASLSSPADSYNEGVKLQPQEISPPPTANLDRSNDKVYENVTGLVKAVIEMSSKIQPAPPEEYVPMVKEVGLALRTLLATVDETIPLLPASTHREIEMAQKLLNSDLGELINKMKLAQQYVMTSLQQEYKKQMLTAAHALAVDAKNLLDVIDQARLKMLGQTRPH
Sequence of Serine/threonine-protein kinase PLK2 (Homo sapiens) (Q9NYY3 whole entry, looked up, the tested form may be a part): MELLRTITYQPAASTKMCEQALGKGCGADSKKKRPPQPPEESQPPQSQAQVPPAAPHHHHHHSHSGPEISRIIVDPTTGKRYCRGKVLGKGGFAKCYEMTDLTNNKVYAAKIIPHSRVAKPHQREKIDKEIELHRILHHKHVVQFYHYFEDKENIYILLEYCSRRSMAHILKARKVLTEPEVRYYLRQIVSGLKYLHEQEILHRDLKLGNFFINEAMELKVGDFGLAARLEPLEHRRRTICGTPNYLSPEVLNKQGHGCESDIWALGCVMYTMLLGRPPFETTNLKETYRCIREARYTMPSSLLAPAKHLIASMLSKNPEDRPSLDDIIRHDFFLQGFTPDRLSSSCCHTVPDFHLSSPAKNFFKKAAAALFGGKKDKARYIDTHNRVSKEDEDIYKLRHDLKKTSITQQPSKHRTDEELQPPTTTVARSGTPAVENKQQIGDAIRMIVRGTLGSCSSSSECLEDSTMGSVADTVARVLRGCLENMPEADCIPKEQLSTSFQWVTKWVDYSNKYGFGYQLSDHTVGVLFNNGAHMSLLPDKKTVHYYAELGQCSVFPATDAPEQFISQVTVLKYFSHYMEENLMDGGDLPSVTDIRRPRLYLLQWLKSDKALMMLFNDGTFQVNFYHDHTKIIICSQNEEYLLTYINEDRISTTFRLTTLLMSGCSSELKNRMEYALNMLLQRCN
Sequence of Tau-tubulin kinase 2 (Homo sapiens) (Q6IQ55 whole entry, the tested form may be a part): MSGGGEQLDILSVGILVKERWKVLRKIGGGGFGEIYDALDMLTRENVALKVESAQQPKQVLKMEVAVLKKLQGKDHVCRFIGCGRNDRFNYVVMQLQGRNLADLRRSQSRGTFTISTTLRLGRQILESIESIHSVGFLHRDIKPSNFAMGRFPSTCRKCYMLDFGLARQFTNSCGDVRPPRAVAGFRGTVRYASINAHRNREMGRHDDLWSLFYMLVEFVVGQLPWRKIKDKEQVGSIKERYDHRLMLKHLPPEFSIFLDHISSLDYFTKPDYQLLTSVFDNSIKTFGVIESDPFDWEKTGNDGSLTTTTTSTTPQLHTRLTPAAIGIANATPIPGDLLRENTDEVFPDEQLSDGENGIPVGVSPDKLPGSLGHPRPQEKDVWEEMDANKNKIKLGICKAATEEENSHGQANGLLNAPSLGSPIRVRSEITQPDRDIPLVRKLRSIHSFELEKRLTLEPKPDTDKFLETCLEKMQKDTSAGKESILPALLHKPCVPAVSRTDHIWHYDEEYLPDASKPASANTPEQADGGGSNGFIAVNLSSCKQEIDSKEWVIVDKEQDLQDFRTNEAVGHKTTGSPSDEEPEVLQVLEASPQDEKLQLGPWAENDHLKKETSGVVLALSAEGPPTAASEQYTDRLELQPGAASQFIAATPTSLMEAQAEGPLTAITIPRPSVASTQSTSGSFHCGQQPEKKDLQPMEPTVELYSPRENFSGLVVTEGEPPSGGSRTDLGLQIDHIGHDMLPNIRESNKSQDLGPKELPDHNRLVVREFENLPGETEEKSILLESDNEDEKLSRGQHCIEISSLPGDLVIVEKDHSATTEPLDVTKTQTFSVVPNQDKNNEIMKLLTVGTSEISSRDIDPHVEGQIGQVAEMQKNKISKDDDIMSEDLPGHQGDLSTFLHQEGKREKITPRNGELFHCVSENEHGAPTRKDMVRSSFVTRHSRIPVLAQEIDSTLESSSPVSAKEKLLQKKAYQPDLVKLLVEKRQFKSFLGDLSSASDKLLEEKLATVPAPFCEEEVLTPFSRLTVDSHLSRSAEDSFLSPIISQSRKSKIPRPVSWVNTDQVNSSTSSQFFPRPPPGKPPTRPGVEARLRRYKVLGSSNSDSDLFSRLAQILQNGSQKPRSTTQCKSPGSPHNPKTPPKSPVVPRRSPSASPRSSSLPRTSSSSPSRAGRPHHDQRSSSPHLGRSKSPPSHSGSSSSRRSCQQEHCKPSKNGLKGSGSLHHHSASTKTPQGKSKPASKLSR
Sequence of Protein kinase C eta type (Homo sapiens), P24723 [UNDEFINED MUTATION] (P24723 whole entry, looked up, stated change not applied): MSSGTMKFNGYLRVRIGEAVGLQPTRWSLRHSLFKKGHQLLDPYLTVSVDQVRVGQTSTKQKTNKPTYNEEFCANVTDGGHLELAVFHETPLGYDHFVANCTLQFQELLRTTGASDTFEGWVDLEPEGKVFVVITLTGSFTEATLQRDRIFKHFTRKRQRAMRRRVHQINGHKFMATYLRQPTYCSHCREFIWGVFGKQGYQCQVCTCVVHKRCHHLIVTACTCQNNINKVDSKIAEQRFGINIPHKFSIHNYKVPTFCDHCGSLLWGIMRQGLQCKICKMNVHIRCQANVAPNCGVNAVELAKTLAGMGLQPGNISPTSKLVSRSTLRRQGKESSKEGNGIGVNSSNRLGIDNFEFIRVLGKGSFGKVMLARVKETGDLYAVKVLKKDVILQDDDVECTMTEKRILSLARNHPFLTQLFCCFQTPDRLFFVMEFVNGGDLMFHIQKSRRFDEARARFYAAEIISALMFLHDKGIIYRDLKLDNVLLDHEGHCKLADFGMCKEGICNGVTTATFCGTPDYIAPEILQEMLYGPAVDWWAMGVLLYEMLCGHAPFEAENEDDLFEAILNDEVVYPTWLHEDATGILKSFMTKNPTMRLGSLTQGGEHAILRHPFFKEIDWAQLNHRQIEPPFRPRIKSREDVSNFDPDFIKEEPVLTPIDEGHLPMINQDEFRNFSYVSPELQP

What does the source list for `Cc1cc(C)c(CNc2nc(Cl)nc3c2ncn3C2CCCC2)c(=O)[nH]1`?
viability at 0.05 µM (HCT-116 [1]): 42.6%; Activity [2]: 106%; Activity [3]: 112%; Activity [4]: 98.5%; Activity [5]: 102%; Activity (Homo sapiens [6]): 124%; Activity [7]: 117%; Activity [8]: 104%; Activity (Mus musculus): 99%; Activity [9]: 104%; Activity [10]: 103%; Activity (Homo sapiens [11]): 93.5%; Activity (HCT-116 [12]): Active; Activity (HCT-116 [13]): Active; Activity (SW-620 [14]): Dose-dependent effect; Activity [15]: 113%; Activity [16]: 102%; Activity [17]: 100%; Activity [18]: 91%; Activity [19]: 88%; Activity [20]: 128%; Activity [21]: 92%; Activity [22]: 110%; Activity (SW-620 [23]): 4.23%; viability at 0.025 µM (SW-620 [24]): 61.8%
